Source: article PMC12655633, “Simultaneous Quantification of Multiple Analytes in Rat Plasma by UHPLC–MS/MS Following Oral Administration of Gastrodiae Rhizoma Extract for Pharmacokinetic Evaluation” (Molecules, 2025)

Experiment: Pharmacokinetic study in rats after oral administration of GR extract (UHPLC-MS/MS of plasma)
Format: in vivo, Sprague-Dawley rats
Conditions: for AUC(0-inf) / AUC(0-t) / Cmax / Tmax / k el / half-life: male, Sprague-Dawley, po; for AUC(0-inf) / AUC(0-t) / Cmax / Tmax / k el / half-life / CL (clearance) / Vz (apparent volume of distribution) / T1/2: rat plasma, GR extract 9.6 g/kg intragastric gavage, mean ± SD, n = 6; for k el: read-out: λz (terminal elimination rate constant) (converted); for half-life: rat, plasma, 9.6 g/kg; for plasma concentration relative to LLOQ: rat plasma following gavage of GR extract
Method: To each 100 μL plasma sample, 20 μL of methanol and 20 μL of IS (astragalin, 1 μg/mL) were added and vortexed for 1 min. Extraction was carried out with 800 μL of methanol, followed by vortexing for 5 min at room temperature. The sample was centrifuged at 12,000× g for 10 min. Subsequently, 750 µL of supernatant was transferred to a fresh tube and completely dried under flow nitrogen. The residue was reconstituted in 150 μL of 50% methanol (v/v), vortexed for 5 min, and centrifuged for 10 min. Finally, the resulting supernatant was injected into the UHPLC-MS/MS instrument.
In this study, six SPF-grade male Sprague-Dawley rats (six weeks old, 220 ± 10 g), supplied by Beijing HUAFUKANG Bioscience Co., Inc. (Beijing, China), were housed for seven days under controlled conditions (23 ± 2 °C, 50 ± 10% relative humidity) with ad libitum access to food and water. All rats underwent a 12 h fasting period before dosing, but maintained free access to water. This study’s animal care protocols and experimental procedures adhered to institutional policies and were formally authorized by the Animal Ethics Review Committee of Tianjin University of Traditional Chinese Medicine (Tianjin, China; Ref. TCM-LAEC2025003w1430). Each rat received a GR suspension at a dosage of 9.6 g/kg via intragastric gavage. Prior to dosing, 0.2 mL of blood was drawn from the retro-orbital plexus into a heparin-coated tube. Subsequent samples were collected at 0, 0.03, 0.08, 0.17, 0.25, 0.5, 0.75, 1, 2, 4, 6, 8, 12, 24, 36, and 48 h post-dose. Plasma was separated by centrifugation (6000× g, 10 min, 4 °C) and stored at −80 °C until further analysis.
Plasma concentrations of the fourteen target analytes were determined using the MassHunter Workstation (Agilent, USA; ver. B.09.00). Pharmacokinetic analysis was conducted with DAS software (Medical College of Wannan, Wuhu, Anhui, China; v. 3.0) using non-compartmental model to calculate pharmacokinetic parameters, including Cmax, Tmax, AUC(0–t), AUC(0–∞), clearance (CL), the apparent volume of distribution (Vz), and terminal elimination rate constant (λz) for each analyte. All parameters were summarized as mean ± standard deviation (SD) (n = 6), with the SD representing inter-individual variability in the pharmacokinetic behavior.

Row | Structure (SMILES) | AUC(0-inf) | AUC(0-t) | Cmax | Tmax | k el | half-life | CL (clearance) | Vz (apparent volume of distribution) | plasma concentration relative to LLOQ | T1/2
1 | Nc1ncnc2c1ncn2[C@@H]1O[C@H](CO)[C@@H](O)[C@H]1O [Adenosine] | – | – | – | – | – | – | – | – | below the LLOQ at the majority of time points | –
2 | COc1cc2c(cc1OC)[C@@H](Cc1ccc(Oc3cc(C[C@@H]4c5cc(OC)c(OC)cc5CCN4C)ccc3O)cc1)N(C)CC2 [Dauricine] | – | – | – | – | – | – | – | – | below the LLOQ at the majority of time points | –
3 | COc1ccc(-c2cc(=O)c3c(OC)c(OC)c(OC)c(OC)c3o2)cc1OC [Nobiletin] | – | – | – | – | – | – | – | – | below the LLOQ at the majority of time points | –
4 | COc1cc(C=O)cc(OC)c1O [Syringaldehyde] | – | – | – | – | – | – | – | – | below the LLOQ at the majority of time points | –
5 | OCc1ccc(O[C@@H]2O[C@H](CO)[C@@H](O)[C@H](O)[C@H]2O)cc1 [Gastrodin] | 145000 ng·h/mL | 143000 ng·h/mL | 31500 ng/mL | 1.5 ± 0.55 h | 1.67e-05 s⁻¹ | ~8 h | 2.33 ± 0.5 mL/min/kg | 4.29 ± 3.24 L/kg | – | 8.30 ± 1.14 h
6 | O=Cc1ccc(O)c(O)c1 [3,4-Dihydroxybenzaldehyde] | – | – | – | – | – | – | – | – | below the LLOQ at the majority of time points | –

Second part, led by results:

Row | AUC(0-inf) | AUC(0-t) | Cmax | Tmax | k el | half-life | CL (clearance) | Vz (apparent volume of distribution) | Structure (SMILES) | plasma concentration relative to LLOQ | T1/2
7 | 1600 ± 384 ng·h/mL | 1580 ± 381 ng·h/mL | 442 ± 147 ng/mL | 0.11 ± 0.05 h | 4.44e-05 s⁻¹ | 6.21 ± 3.33 h | 218 ± 47.2 mL/min/kg | 116.74 ± 60.67 L/kg | O=C(O)c1ccc(O)cc1 [p-Hydroxybenzoic acid] | – | –
8 | 674000 ng·h/mL | 672000 ng·h/mL | 90500 ng/mL | 1.63 ± 0.59 h | 3.89e-05 s⁻¹ | 5.31 ± 1.55 h | 0.5 ± 0.17 mL/min/kg | 0.24 ± 0.10 L/kg | OCc1ccc(O)cc1 [p-Hydroxybenzyl alcohol] | – | –
9 | 59.1 ± 21 ng·h/mL | 56.7 ± 23.1 ng·h/mL | 22.5 ± 3.04 ng/mL | 0.25 ± 0.01 h | 7.78e-05 s⁻¹ | 5.86 ± 2.99 h | 6285.8 ± 2280.5 mL/min/kg | 4220.87 ± 5603.54 L/kg | O=Cc1ccc(O)cc1 [p-Hydroxybenzaldehyde] | – | –
10 | 460 ± 222 ng·h/mL | 460 ± 222 ng·h/mL | 319 ± 157 ng/mL | 0.1 ± 0.06 h | 7.22e-05 s⁻¹ | 2.67 ± 0.26 h | 899.2 ± 438.3 mL/min/kg | 215.10 ± 119.59 L/kg | O=C(O)CC(O)(CC(=O)OCc1ccc(O[C@@H]2O[C@H](CO)[C@@H](O)[C@H](O)[C@H]2O)cc1)C(=O)OCc1ccc(O[C@@H]2O[C@H](CO)[C@@H](O)[C@H](O)[C@H]2O)cc1 (some centres unmarked) [Parishin B] | – | –
11 | 13100 ng·h/mL | 11600 ng·h/mL | 2350 ± 1100 ng/mL | 0.75 ± 0.01 h | 1.39e-05 s⁻¹ | ~8 h | 26.3 ± 5.83 mL/min/kg | 41.00 ± 29.24 L/kg | O=C(O)CC(O)(CC(=O)OCc1ccc(O[C@@H]2O[C@H](CO)[C@@H](O)[C@H](O)[C@H]2O)cc1)C(=O)O (some centres unmarked) [Parishin E] | – | 8.08 ± 3.33 h
12 | 572 ± 271 ng·h/mL | 531 ± 256 ng·h/mL | 210 ± 92.2 ng/mL | 0.22 ± 0.07 h | 1.39e-05 s⁻¹ | 3.62 ± 0.26 h | 676.3 ± 244.2 mL/min/kg | 808.82 ± 409.11 L/kg | O=C(CC(O)(CC(=O)OCc1ccc(O[C@@H]2O[C@H](CO)[C@@H](O)[C@H](O)[C@H]2O)cc1)C(=O)OCc1ccc(O[C@@H]2O[C@H](CO)[C@@H](O)[C@H](O)[C@H]2O)cc1)OCc1ccc(O[C@@H]2O[C@H](CO)[C@@H](O)[C@H](O)[C@H]2O)cc1 [ParishinA, Parishin A] | – | –
13 | 59 ± 18.5 ng·h/mL | 59 ± 18.5 ng·h/mL | 25 ± 14.2 ng/mL | 0.5 ± 0.02 h | 6.11e-05 s⁻¹ | 2.74 ± 0.42 h | 6170.7 ± 2057.5 mL/min/kg | 1588.63 ± 636.70 L/kg | NC(=O)c1cccnc1 [Nicotinamide] | – | –
